In brackets after ≈: the same amount, converted by molar mass. Several values for one entry are separate records, joined by “and”; a condition that tells them apart may be missing. Identical values can stand only once. Like-named read-outs stand apart in the source and are kept apart here.
Key:
[1] = tested on: E. coli JT 410; assay: standard microliter MIC test (Demonstrations 3-5); format: cell-based
[2] = tested on: Staph Russell; assay: standard microliter MIC test (Demonstrations 3-5); format: cell-based; details: for MIC: alone
[3] = tested on: E. coli JT 39; assay: standard microliter MIC test (Demonstrations 3-5); format: cell-based; details: for MIC: alone
[4] = tested on: Proteus C 889; assay: standard microliter MIC test (Demonstrations 3-5); format: cell-based; details: for MIC (ampicillin + title compound): trailing end point; for MIC: alone
[5] = tested on: Kleb E 70; assay: standard microliter MIC test (Demonstrations 3-5); format: cell-based, Klebsiella
[6] = tested on: Escherichia coli JT39; assay: Amoxycillin with or without synergist, E. coli JT39 intraperitoneal infection of mice, oral (Demonstration 1b); format: in vivo, Escherichia coli (infected mice); details: antibiotic alone, oral, 1, 3 and 5 hours post-infection, read-out: CD50 (the source's name)
Procedure: (§1) b. Oral administration: Groups of mice were infected inter peritoneally with Escherichia coli JT39. At 1, 3 and 5 hours post-infection the mice were treated with amoxycillin or with amoxycillin and synergist. The solutions were made up in phosphate buffer.

[7] = tested on: Escherichia coli JT 39; assay: intra peritoneal infection due to Escherichia coli JT 39 in mice, subcutaneous dosing (Demonstration 2b); format: in vivo, Escherichia coli (infected mice); details: for ED50: Escherichia coli, JT39, sc, alone, × 2, sub-cutaneous, 1 and 5 hours post infection, read-out: C50
Procedure: b. […] Dosing was sub-cutaneous and 1 and 5 hours post infection.

[8] = tested on: Escherichia coli JT39; assay: Amoxycillin with or without synergist, E. coli JT39 intraperitoneal infection of mice, subcutaneous (Demonstration 1a); format: in vivo, Escherichia coli (infected mice); details: JT39, sc, antibiotic alone, sub-cutaneous, 1 and 5 hours post infection, read-out: CD50 (the source's name)
Procedure: (§2) a. Sub-cutanvenous administration: Groups of mice were infected inter peritoneally with Escherichia coli JT39. At 1 and 5 hours post infection the mice were treated with amoxycillin (Amox.) or with amoxycillin and synergist. The solutions were made up in phosphate buffer.

[9] = tested on: E. coli JT 39; assay: conventional microliter method, MIC (Demonstration 2a); format: cell-based; details: Escherichia coli, JT39
Procedure: (§3) a. The antibacterial and synergistic activity of the title compound (referred to as "Sunergist" in the Table) was determined by a conventional microliter method.

[10] = tested on: Proteus C 889; assay: as above; format: cell-based
Procedure: as §3

[11] = tested on: Pseudomonas Dalgleish; assay: microbe, parasite or virus in culture; format: cell-based
Procedure: as §3

[12] = tested on: Escherichia coli JT39; assay: standard MIC test (Demonstration 1c); format: cell-based
[13] = tested on: Staph. aureus Russell; assay: standard MIC test (Demonstration 1c); format: cell-based; details: Staphylococcus aureus
[14] = tested on: Klebsiella E70; assay: standard MIC test (Demonstration 1c); format: cell-based; details: alone
[15] = Signs of drug toxicity during the in-vivo tests (Demonstration 1); details: mice
Procedure: as §2, with “buffer. The results were as follows:” for “buffer.”
as §1

[16] = tested on: gram negative bacteria such as Escherichia and Klebsiella and gram positive bacteria such as Staphylococcus; assay: Summary of the synergy tests with penicillins (Demonstration 1d); details: summary of preceding tests
Procedure: as §2, with “buffer. The results were as follows:” for “buffer.”
as §1

[17] = tested on: E. coli JT 410; assay: conventional microliter method, MIC (Demonstration 2a); format: cell-based; details: Escherichia coli, JT410; alone
Procedure: as §3

[18] = tested on: Kleb. E 70; assay: as above; format: cell-based; details: Klebsiella; alone
Procedure: as §3

[19] = tested on: Staph. Russell; assay: as above; format: cell-based; details: alone
Procedure: as §3

[20] = Average blood levels after oral administration to dogs (Demonstration 6); format: in vivo; details: dog, 5 mg/kg
Procedure: (§4) Lithium 9-O-(azetidin-2'-on-4'-yl)clavulanate was administered orally to a group of eight dogs, weighing 9-12 kg, at a dosage of 5 mg/kg.
The level of the compound in the blood was measured after 0.25, 0.5, 1, 2, 4 and 6 hours. The results are shown in Table 1, with those for sodium clavulanate for comparison.

[21] = Urinary recovery after oral administration to dogs (Demonstration 6); format: in vivo; details: for dose excreted at 24 h: dog, urine, po, 5 mg/kg
Procedure: as §4
The urinary recovery of the compound over 24 hours was also measured.

[22] = Escherichia coli, JT410, alone, read-out: MIC
[23] = Escherichia coli, JT39, read-out: MIC
[24] = Klebsiella, E70, alone, read-out: MIC

Compound: NCC(=O)NCCOCC=C1OC2CC(=O)N2C1C(=O)O (centres unmarked) [9-O-[(N-Glycyl)-2-aminoethyl]clavulanic acid]
- MIC (ampicillin + title compound) ([1]; Amp. + 5 μg/ml of title comp.): 62.5 µg/mL
- MIC ([1]; alone): 62.5 µg/mL (≈ 209 µM)
- MIC (ampicillin + title compound) ([2]; Amp. + 1 μg/ml of title comp.): 1.25 µg/mL
- MIC (ampicillin + title compound) ([2]; Amp. + 5 μg/ml of title comp.): 0.15 µg/mL
- MIC [2]: 8 µg/mL (≈ 26.7 µM)
- MIC (ampicillin + title compound) ([3]; Amp. + 1 μg/ml of title comp.): 31.2 µg/mL
- MIC (ampicillin + title compound) ([3]; Amp. + 5 μg/ml of title comp.): 8 µg/mL
- MIC [3]: 31.2 µg/mL (≈ 104 µM)
- MIC (ampicillin + title compound) ([4]; Amp. + 1 μg/ml of title comp.): 8 µg/mL
- MIC (ampicillin + title compound) ([4]; Amp. + 5 μg/ml of title comp.): 2 µg/mL
- MIC [4]: 250 µg/mL (≈ 835 µM)
- MIC (ampicillin + title compound) ([5]; Amp. + 1 μg/ml of title comp.): 6.25 µg/mL
- MIC (ampicillin + title compound) ([5]; Amp. + 5 μg/ml of title comp.): 1.5 µg/mL
- MIC ([5]; alone): 62.5 µg/mL (≈ 209 µM)

Compound: CC1(C)S[C@@H]2[C@H](NC(=O)[C@H](N)c3ccc(O)cc3)C(=O)N2[C@H]1C(=O)O [Amoxycillin, amoxycillin]
- ED50 [6]: > 1000 mg/kg
- ED50 [7]: > 1000 mg/kg
- ED50 [8]: > 1000 mg/kg

Compound: CC1(C)S[C@@H]2[C@H](NC(=O)[C@H](N)c3ccccc3)C(=O)N2[C@H]1C(=O)O [Ampicillin, ampicillin, reference compound]
- MIC [9]: 2000 µg/mL
- MIC [10]: 1000 µg/mL
- MIC ([1]; Escherichia coli, JT410): 250 µg/mL (≈ 715 µM)
- MIC [11]: > 2000 µg/mL
- MIC ([3]; Escherichia coli, JT39): 2000 µg/mL (≈ 5720 µM)
- MIC [3]: 1000 µg/mL (≈ 2860 µM)
- MIC [4]: 2000 µg/mL and > 2000 µg/mL
- MIC [12]: 2000 µg/mL (≈ 5720 µM)
- MIC [13]: 62 µg/mL (≈ 177 µM)
- MIC ([5]; Klebsiella, E70): 1000 µg/mL (≈ 2860 µM)
- MIC ([5]; Klebsiella, E70, alone): 500 µg/mL (≈ 1430 µM)

Compound: Cc1nnc(SCC2=C(C(=O)O)N3C(=O)[C@@H](NC(=O)Cn4cnnn4)[C@H]3SC2)s1 [Cefazolin]
- ED50 [7]: 13 mg/kg

Compound: O=C1CC(OC/C=C2\O[C@@H]3CC(=O)N3[C@H]2C(=O)O)N1 (some centres unmarked) [Example 2, Sodium 9-O-(azetidin-2'-on-4'-yl)clavulanate]
- MIC [14]: 31.2 µg/mL
- signs of drug toxicity [15]: No signs of drug toxicity were observed
- synergism with penicillins such as amoxycillin [16]: effective synergist for penicillins such as amoxycillin
- MIC ([12]; alone, read-out: MIC): 31.2 µg/mL
- MIC ([13]; alone, read-out: MIC): 8 µg/mL

Compound: CC(NC=O)OC/C=C1\O[C@@H]2CC(=O)N2[C@H]1C(=O)O (some centres unmarked) [Example 9, Lithium 9-O-(1-formamidoethyl)clavulanate]
- MIC [17]: 31.2 µg/mL
- MIC ([9]; alone, read-out: MIC): 62.5 µg/mL
- MIC [18]: 62.5 µg/mL
- MIC [19]: 8 µg/mL
- MIC ([10]; alone, read-out: MIC): 62.5 µg/mL
- effect on the effectiveness of amoxycillin ([7]; with amoxycillin, sub-cutaneous): enhance the effectiveness of amoxycillin
- MIC [11]: > 500 µg/mL

Compound: N[C@@H]1C(=O)N[C@H]1OC/C=C1\O[C@@H]2CC(=O)N2[C@H]1C(=O)O [Example 13, 9-O-[(3S,4S)-2'-Oxo-3'-aminoazetidin-4'-yl]clavulanic acid]
- MIC [1, 22]: 62.5 µg/mL (≈ 221 µM)
- MIC ([2]; read-out: MIC): 62.5 µg/mL (≈ 221 µM)
- MIC [3, 23]: 62.5 µg/mL (≈ 221 µM)
- MIC ([4]; read-out: MIC): 62.5 µg/mL (≈ 221 µM)
- MIC [5, 24]: 62.5 µg/mL (≈ 221 µM)

Compound: N[C@@H]1C(=O)N[C@@H]1OC/C=C1\O[C@@H]2CC(=O)N2[C@H]1C(=O)O [Example 14, 9-O-[(3S,4R)-2'-Oxo-3'-aminoazetidin-4'-yl]-clavulanic acid]
- MIC [1, 22]: 62.5 µg/mL (≈ 221 µM)
- MIC ([2]; read-out: MIC): 62.5 µg/mL (≈ 221 µM)
- MIC [3, 23]: 31.2 µg/mL (≈ 110 µM)
- MIC ([4]; read-out: MIC): 62.5 µg/mL (≈ 221 µM)
- MIC [5, 24]: 62.5 µg/mL (≈ 221 µM)

Compound: O=C1CC(OC/C=C2\O[C@@H]3CC(=O)N3[C@H]2C(=O)O)N1 (some centres unmarked) [Example 27, Lithium 9-O-(2'-oxoazetidin-4'-yl)-clavulanate]
- concentration at 0.25 h [20]: 1450 ng/mL
- concentration at 0.5 h [20]: 3640 ng/mL
- concentration at 1 h [20]: 4780 ng/mL
- concentration at 2 h [20]: 3790 ng/mL
- concentration at 4 h [20]: 710 ng/mL
- concentration at 6 h ([20]; 6 hours): < 200 ng/mL
- Urinary Recovery ([21]; 0-6 hour, Dog No. 1, 5 mg/kg): 10.8 mg
- Urinary Recovery ([21]; 0-6 hour, Dog No. 2, 5 mg/kg): 14.8 mg
- Urinary Recovery ([21]; 0-6 hour, Dog No. 3, 5 mg/kg): 13.1 mg
- Urinary Recovery ([21]; 0-6 hour, Dog No. 4, 5 mg/kg): 29.5 mg
- Urinary Recovery ([21]; 0-6 hour, Dog No. 5, 5 mg/kg): 18.5 mg
- Urinary Recovery ([21]; 0-6 hour, Dog No. 6, 5 mg/kg): 9.2 mg
- Urinary Recovery ([21]; 0-6 hour, Dog No. 7, 5 mg/kg): 9.25 mg
- Urinary Recovery ([21]; 0-6 hour, Dog No. 8, 5 mg/kg): 12.15 mg
- Urinary Recovery ([21]; 0-24 hour, Dog No. 1, 5 mg/kg): 11.7 mg
- Urinary Recovery ([21]; 0-24 hour, Dog No. 2, 5 mg/kg): 17.4 mg
- Urinary Recovery ([21]; 0-24 hour, Dog No. 3, 5 mg/kg): 18.8 mg
- Urinary Recovery ([21]; 0-24 hour, Dog No. 4, 5 mg/kg): 29.9 mg
- Urinary Recovery ([21]; 0-24 hour, Dog No. 5, 5 mg/kg): 19.6 mg
- Urinary Recovery ([21]; 0-24 hour, Dog No. 6, 5 mg/kg): 10.3 mg
- Urinary Recovery ([21]; 0-24 hour, Dog No. 7, 5 mg/kg): 11.1 mg
- Urinary Recovery ([21]; 0-24 hour, Dog No. 8, 5 mg/kg): 12.3 mg
- dose excreted at 24 h ([21]; Dog No. 1, read-out: Urinary Recovery, % over 24 hour): 20.1%
- dose excreted at 24 h ([21]; Dog No. 2, read-out: Urinary Recovery, % over 24 hour): 38.6%
- dose excreted at 24 h ([21]; Dog No. 3, read-out: Urinary Recovery, % over 24 hour): 32.1%
- dose excreted at 24 h ([21]; Dog No. 4, read-out: Urinary Recovery, % over 24 hour): 52.4%
- dose excreted at 24 h ([21]; Dog No. 5, read-out: Urinary Recovery, % over 24 hour): 37.3%
- dose excreted at 24 h ([21]; Dog No. 6, read-out: Urinary Recovery, % over 24 hour): 17.2%
- dose excreted at 24 h ([21]; Dog No. 7, read-out: Urinary Recovery, % over 24 hour): 19.1%
- dose excreted at 24 h ([21]; Dog No. 8, read-out: Urinary Recovery, % over 24 hour): 19.5%

Compound: O=C(O)[C@H]1/C(=C/CO)O[C@@H]2CC(=O)N21 [sodium clavulanate, reference compound]
- concentration at 0.25 h [20]: 960 ng/mL
- concentration at 0.5 h [20]: 3110 ng/mL
- concentration at 1 h [20]: 2910 ng/mL
- concentration at 2 h [20]: 1680 ng/mL
- concentration at 4 h [20]: 280 ng/mL

Source: patent US4244965A, “Azetidinoyl ethers” (Beecham Group Limited, priority 1978, dated 1981)
